{"source": "patent US8563565B2", "about": "“Pyrazoloquinoline derivatives” (Eisai R&D Management Co., Ltd., priority 2011, dated 2013)"}
{"target": "T1, human recombinant PDE9 protein (Homo sapiens, UniProt O76083)", "T1 construct": "His-tag (inferred from the Ni column purification; a myc His-tag vector is named only for the HEK293 expression check); made in house; host or cells: silkworm (pYNG vector, Katakura Industries)", "T1 sequence (O76083 whole entry)": "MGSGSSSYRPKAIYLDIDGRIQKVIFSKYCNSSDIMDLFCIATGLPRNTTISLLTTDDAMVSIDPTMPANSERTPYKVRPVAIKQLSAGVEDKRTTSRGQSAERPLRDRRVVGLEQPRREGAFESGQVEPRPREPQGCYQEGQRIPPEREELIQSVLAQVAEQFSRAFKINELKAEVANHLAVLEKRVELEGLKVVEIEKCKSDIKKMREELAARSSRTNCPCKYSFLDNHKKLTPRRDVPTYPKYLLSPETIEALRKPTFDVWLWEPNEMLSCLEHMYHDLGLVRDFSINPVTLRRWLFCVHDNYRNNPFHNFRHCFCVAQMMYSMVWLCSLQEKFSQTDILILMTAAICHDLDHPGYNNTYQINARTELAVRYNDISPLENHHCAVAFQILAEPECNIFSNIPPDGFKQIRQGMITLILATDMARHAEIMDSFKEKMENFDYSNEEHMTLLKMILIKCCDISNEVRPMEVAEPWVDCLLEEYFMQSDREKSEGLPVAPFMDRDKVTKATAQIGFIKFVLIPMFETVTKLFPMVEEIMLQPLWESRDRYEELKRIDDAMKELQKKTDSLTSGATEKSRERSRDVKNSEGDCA", "experiment": "PDE9 inhibitory activity test (measurement of PDE9 inhibitory action, [3H]-cGMP)", "assay_type": "biochemical", "conditions": "PDE9 IC50, human recombinant PDE9, 30° C., 10 min", "excerpt": "1) Preparation of a Human Recombinant PDE9 Protein\nAn hsPDE9A 1cDNA fragment was amplified by being based on a base sequence (Accession No.: AF048837) of the hsPDE9A1 registered on GenBank data base, and by using the following sequences (Hokkaido System Science Co., Ltd.) as a primer and Human hippocampus cDNA library (Clontech Laboratories, Inc.) as a template DNA, and using Pfu50 DNA polymerase (Invitrogen Corp.), and by a polymerase chain reaction (PCR) of the following condition.\nThe condition of PCR: [96° C., 5 min]×1 cycle, [(96° C., 10 sec), (57° C., 5 sec), (72° C., 2 min)]×30 cycles\nThe obtained hsPDE9A 1 cDNA fragment was incorporated in a TOPO-TA cloning vector (Invitrogen Corp.), and the base sequence was checked; and thereafter, the resultant was transfected in a pcDNA 3.1/myc His-tag vector (Invitrogen Corp.) to thereby make a human PDE9 expression vector for mammal cells. The human PDE9 expression vector for mammal cells was transfected with transient expression to an HEK293 cell by using a LIPOFETAMINE 2000 Reagent (Gibco). It was confirmed by Western blot method that the PDE9A expressed in the HEK293 cell, and then, the human PDE9A 1cDNA fragment was transfected in a pYNG vector (Katakura Industries Co., Ltd.) to thereby make an expression vector for insect cells. A supernatant of homogenized silk worm in which a large amount of PDE9 was expressed was purified by an equilibrated Ni column using a buffer A (20 mmol/L Tris-HCl, pH: 8.0, 1 mmol/L DTT, 10 mmol/L imidazole). After 1 hour of mixing of the supernatant and the Ni column, cleaning was carried out using a buffer B (20 mmol/L Tris-HCl, pH: 8.0, 1 mmol/L […]), and elution was carried out using a buffer C (20 mmol/L Tris-HCl, pH: 8.0, 1 mmol/L DTT, 100 mmol/L imidazole). An elution fraction was preparatively collected to thereby obtain a PDE9 enzyme solution.\n2) Measurement of PDE9 Inhibitory Action\nTo 100 μL of a buffer D (40 mmol/L Tris-HCl, pH: 7.4, 10 mmol/L MgCl2, 1 mM DTT, 2 μM cGMP) solution containing [^3H]-cGMP ([…]/mL), 10 μL of a compound solution for evaluation (a solution in which a compound was dissolved in DMSO and diluted so that the DMSO concentration became 5%) and 90 μL of a solution prepared by diluting the PDE9 enzyme solution prepared in the above with a buffer E (40 mmol/L Tris-HCl, pH: 7.4, 10 mmol/L MgCl2, 1 mM DTT, 1 mmol/L EGTA) were added under ice cooling. The resultant mixed solution was incubated at 30° C. for 10 min, and thereafter heated for 2 min in boiled water to stop the enzyme reaction of the PDE9. Then, the resultant was returned to room temperature; 50 μL of 5′-Nucleotidase (Biomol GmbH, 10 units/mL) was added thereto; and the resultant was incubated at 30° C. for 10 min to thereby convert [^3H]-5′-GMP formed in the previous reaction to [^3H]-guanosine. 500 μL of an anion exchange resin (Bio-Rad AG1-X2 resin, mesh size: 200-400, H2O:resin=2:1) was added to the resultant reaction liquid, and allowed to stand for 10 min, and thereafter centrifuged (2,000 rpm, 10 min); and a supernatant in which the [^3H]-guanosine was present was transferred to a LumaPlate (PerkinElmer, Inc.), and the radioactivity was measured by a TopCount NXT microplate scintillation and luminescence counter (PerkinElmer, Inc.).\nThe inhibition percentage of the evaluation compound was calculated using the following expression, taking the radioactivity of a control containing no evaluation compound to be (A), the radioactivity of a blank containing no enzyme to be (B), and the radioactivity of the evaluation compound to be (C). Inhibition percentage=100−{[(C)−(B)]/[(A)−(B)]}×100(%)\nThe IC50 value for PDE9 of the evaluation compound was determined from inhibition percentage for various concentrations.", "units": {"IC50": "nM"}}
{"compound": "Cc1cc(C)c(-c2ccc3c(c2)[nH]c(=O)c2cnn(C4CCOCC4)c23)c(CF)n1", "note": "[Example 20]", "IC50": 28.9}
{"compound": "COc1cc(C)c(-c2ccc3c(c2)[nH]c(=O)c2cnn(C4CCCOC4)c23)c(CF)n1", "note": "(single isomer, unassigned) [38 (−)]", "IC50": 12.4}
{"compound": "Cc1cc(C2CCOCC2)cc(C)c1-c1ccc2c(c1)[nH]c(=O)c1cnn(C3CCOCC3)c12", "note": "[Example 40, 7-[2,6-dimethyl-4-(tetrahydro-2H-pyran-4-yl)phenyl]-1-(tetrahydro-2H-pyran-4-yl)-1H-pyrazolo[4,3-c]quinolin-4(5H)-one]", "IC50": 3.21}
{"compound": "COc1cc(CF)c(-c2ccc3c(c2)[nH]c(=O)c2cnn(C4CCOCC4)c23)c(C)n1", "note": "[Example 22]", "IC50": 52.3}
{"compound": "COc1nc(C)cc(C)c1-c1ccc2c(c1)[nH]c(=O)c1cnn(C3CCOC3)c12", "note": "(single isomer, unassigned) [28 (+)]", "IC50": 29.6}
{"compound": "COc1cc(C)c(-c2ccc3c(c2)[nH]c(=O)c2cnn(C4COCCOC4)c23)c(C)n1", "note": "[Example 46]", "IC50": 18.1}
{"compound": "COc1ncc(C)c(-c2ccc3c(c2)[nH]c(=O)c2cnn(C4CCCOCC4)c23)c1C", "note": "(single isomer, unassigned; (+)) [41 (+), (+)-7-(2-methoxy-3,5-dimethylpyridin-4-yl)-1-(oxepan-4-yl)-1H-pyrazolo[4,3-c]quinolin-4(5H)-one]", "IC50": 5.91}
{"compound": "COc1nc(C)cc(C)c1-c1cc2[nH]c(=O)c3cnn([C@@H]4CCOC4)c3c2cc1F", "note": "[Example 58]", "IC50": 11.7}
{"compound": "COc1cc(C)c(-c2ccc3c(c2)[nH]c(=O)c2cnn(C4CCCOCC4)c23)c(C)c1", "note": "(single isomer, unassigned) [42 (−)]", "IC50": 22}
{"compound": "COc1cc(C)c(-c2ccc3c(c2)[nH]c(=O)c2cnn(C4COCCOC4)c23)c(C)c1", "note": "[Example 44]", "IC50": 12.1}
{"compound": "COc1nc(CF)cc(C)c1-c1ccc2c(c1)[nH]c(=O)c1cnn(C3CCCOC3)c12", "note": "(single isomer, unassigned) [35 (+)]", "IC50": 2.62}
{"compound": "Cc1cnc(OC(C)C)c(C)c1-c1ccc2c(c1)[nH]c(=O)c1cnn([C@H]3CCOC3)c12", "note": "[Example 48, (S)-7-(2-isopropyloxy-3,5-dimethylpyridin-4-yl)-1-(tetrahydrofuran-3-yl)-1H-pyrazolo[4,3-c]quinolin-4(5H)-one]", "IC50": 8.35}
{"compound": "COc1nc(CF)cc(C)c1-c1ccc2c(c1)[nH]c(=O)c1cnn(C3CCOC3)c12", "note": "(single isomer, unassigned) [31 (+)]", "IC50": 20.1}
{"compound": "COc1cc(C)c(-c2ccc3c(c2)[nH]c(=O)c2cnn(C4CCCOCC4)c23)c(C)c1", "note": "(single isomer, unassigned) [42 (+)]", "IC50": 8.81}
{"compound": "COc1nccc(C)c1-c1ccc2c(c1)[nH]c(=O)c1cnn(C3CCCOC3)c12", "note": "(single isomer, unassigned) [39 (+)]", "IC50": 5.07}
{"compound": "COc1ncc(C)c(-c2ccc3c(c2)[nH]c(=O)c2cnn(C4CCCOC4)c23)c1C", "note": "(single isomer, unassigned) [36 (+)]", "IC50": 8.98}
{"compound": "Cc1cc(C)c(-c2ccc3c(c2)[nH]c(=O)c2cnn(C4CCOCC4)c23)c(C(F)F)n1", "note": "[Example 21]", "IC50": 53.9}
{"compound": "COc1ncc(C)c(-c2ccc3c(c2)[nH]c(=O)c2cnn(C4CCCOCC4)c23)c1C", "note": "(single isomer, unassigned; (-)) [41 (−), (−)-7-(2-methoxy-3,5-dimethylpyridin-4-yl)-1-(oxepan-4-yl)-1H-pyrazolo[4,3-c]quinolin-4(5H)-one]", "IC50": 12.1}
{"compound": "COc1cc(C)c(-c2ccc3c(c2)[nH]c(=O)c2cnn(C4CCCOC4)c23)c(C)n1", "note": "(single isomer, unassigned) [37 (−)]", "IC50": 10.1}
{"compound": "COc1cc(C)c(-c2ccc3c(c2)[nH]c(=O)c2cnn(C4CCCOC4)c23)c(C)n1", "note": "(single isomer, unassigned) [37 (+)]", "IC50": 10.9}
{"compound": "COc1nc(C)cc(C)c1-c1ccc2c(c1)[nH]c(=O)c1cnn(C3COCCOC3)c12", "note": "[Example 45, 1-(1,4-dioxepan-6-yl)-7-(2-methoxy-4,6-dimethylpyridin-3-yl)-1H-pyrazolo[4,3-c]quinolin-4(5H)-one]", "IC50": 3.33}
{"compound": "COc1nccc(C)c1-c1ccc2c(c1)[nH]c(=O)c1cnn(C3CCCOC3)c12", "note": "(single isomer, unassigned) [39 (−)]", "IC50": 4.08}
{"compound": "Cc1cccc(C)c1-c1ccc2c(c1)[nH]c(=O)c1cnn(C3CCOCC3)c12", "note": "[Example 1, 7-(2,6-dimethylphenyl)-1-(tetrahydro-2H-pyran-4-yl)-1H-pyrazolo[4,3-c]quinolin-4(5H)-one]", "IC50": 24.3}
{"compound": "COc1ncc(C)c(-c2ccc3c(c2)[nH]c(=O)c2cnn([C@@H]4COC[C@H]4OC)c23)c1C", "note": "(racemic) [Example 61, 7-(2-methoxy-3,5-dimethylpyridin-4-yl)-1-[(3RS,4SR)-4-methoxytetrahydrofuran-3-yl]-1H-pyrazolo[4,3-c]quinolin-4(5H)-one]", "IC50": 77.5}
{"compound": "COc1ncc(Cl)c(C)c1-c1ccc2c(c1)[nH]c(=O)c1cnn(C3CCOCC3)c12", "note": "[Example 10]", "IC50": 20.8}
{"compound": "COc1nc(C)c(Cl)c(C)c1-c1ccc2c(c1)[nH]c(=O)c1cnn(C3CCOCC3)c12", "note": "[Example 11]", "IC50": 11.3}
{"compound": "CCOc1ncc(C)c(-c2ccc3c(c2)[nH]c(=O)c2cnn([C@H]4CCOC4)c23)c1C", "note": "[Example 50]", "IC50": 6.51}
{"compound": "Cc1cc(C#N)nc(C)c1-c1ccc2c(c1)[nH]c(=O)c1cnn(C3CCOCC3)c12", "note": "[Example 13]", "IC50": 36.7}
{"compound": "COc1nc(CF)cc(C)c1-c1ccc2c(c1)[nH]c(=O)c1cnn(C3CCOC3)c12", "note": "(single isomer, unassigned) [31 (−)]", "IC50": 7.42}
{"compound": "COc1cc(C)c(-c2ccc3c(c2)[nH]c(=O)c2cnn(C4CCOC4)c23)c(CF)n1", "note": "(stereo not drawn) [30 (+)]", "IC50": 225}
{"compound": "COc1nccc(C)c1-c1ccc2c(c1)[nH]c(=O)c1cnn(C3CCOC3)c12", "note": "(single isomer, unassigned) [32 (+)]", "IC50": 70.7}
{"compound": "COc1nc(C)cc(C)c1-c1cc2[nH]c(=O)c3cnn(C4CCOCC4)c3c2cc1F", "note": "[Example 52, 8-fluoro-7-(2-methoxy-4,6-dimethylpyridin-3-yl)-1-(tetrahydro-2H-pyran-4-yl)-1H-pyrazolo[4,3-c]quinolin-4(5H)-one]", "IC50": 4.77}
{"compound": "COc1ncc(C)c(-c2ccc3c(c2)[nH]c(=O)c2cnn(C4CCCOC4)c23)c1C", "note": "(single isomer, unassigned) [36 (−)]", "IC50": 8.1}
{"compound": "COc1nccc(C)c1-c1ccc2c(c1)[nH]c(=O)c1cnn(C3COCCOC3)c12", "note": "[Example 47]", "IC50": 5.67}
{"compound": "COc1cc(C)c(-c2cc3[nH]c(=O)c4cnn([C@@H]5CCOC5)c4c3cc2F)c(C)n1", "note": "[Example 59]", "IC50": 71.5}
{"compound": "COc1nc(C)cc(C)c1-c1ccc2c(c1)[nH]c(=O)c1cnn(C3CCCOC3)c12", "note": "(single isomer, unassigned; (-)) [34 (−), (−)-7-(2-methoxy-4,6-dimethylpyridin-3-yl)-1-(tetrahydro-2H-pyran-3-yl)-1H-pyrazolo[4,3-c]quinolin-4(5H)-one]", "IC50": 3.36}
{"compound": "COc1ncc(C)c(-c2cc3[nH]c(=O)c4cnn([C@@H]5CCOC5)c4c3cc2F)c1C", "note": "[Example 57, (R)-8-fluoro-7-(2-methoxy-3,5-dimethylpyridin-4-yl)-1-(tetrahydrofuran-3-yl)-1H-pyrazolo[4,3-c]quinolin-4(5H)-one]", "IC50": 43.9}
{"compound": "COc1nc(CF)cc(C)c1-c1ccc2c(c1)[nH]c(=O)c1cnn(C3CCOCC3)c12", "note": "[Example 17]", "IC50": 6.08}
{"compound": "COc1cc(C)c(-c2ccc3c(c2)[nH]c(=O)c2cnn(C4CCOC4)c23)c(C)n1", "note": "(single isomer, unassigned) [29 (+)]", "IC50": 137}
